According to paper PMC9187613 (Bioorganic chemistry, 2022):
Entries after “also recorded” stand apart in the source; their conditions may differ. Where two headings read alike, the source gives them in different places.

Experiments:
Vero cells = test: Cytotoxicity assay; conditions: for CC50: 48 h, LDH release
ZIKV NS2B-NS3 protease = ZIKV NS2B-NS3 protease (Zika virus, UniProt A0A024B7W1); test: NS2B-NS3 protease activity assay; assay type: biochemical; conditions: for inhibition of protease activity: single 200 μM concentration, 80% threshold
[1] = tested on: Zika virus (ATCC strain MR 766); test: ZIKV replication in Vero cells, virus titers by plaque assay; conditions: for concentration at which replication was blocked completely: 48 h; for EC50: read-out: Antiviral EC50, MOI 1, 48 h, plaque assay
ZIKV NS5 RdRp = ZIKV NS5 RdRp (Zika virus, UniProt A0A024B7W1); test: NS5 RNA-dependent RNA-polymerase activity assay; assay type: biochemical; conditions: for inhibition of the RdRp (in words): activity assays
DENV2 NS2B-NS3 protease = conditions: cited from earlier work
[2] = tested on: papain-like protease (PL^pro); conditions: cited from earlier work
[3] = read-out: NS3pro IC50, 4 nM enzyme, 30 μM Bz-nKRR-AMC, 37 °C

Chain of ZIKV NS5 RdRp (A0A024B7W1 2826-3423): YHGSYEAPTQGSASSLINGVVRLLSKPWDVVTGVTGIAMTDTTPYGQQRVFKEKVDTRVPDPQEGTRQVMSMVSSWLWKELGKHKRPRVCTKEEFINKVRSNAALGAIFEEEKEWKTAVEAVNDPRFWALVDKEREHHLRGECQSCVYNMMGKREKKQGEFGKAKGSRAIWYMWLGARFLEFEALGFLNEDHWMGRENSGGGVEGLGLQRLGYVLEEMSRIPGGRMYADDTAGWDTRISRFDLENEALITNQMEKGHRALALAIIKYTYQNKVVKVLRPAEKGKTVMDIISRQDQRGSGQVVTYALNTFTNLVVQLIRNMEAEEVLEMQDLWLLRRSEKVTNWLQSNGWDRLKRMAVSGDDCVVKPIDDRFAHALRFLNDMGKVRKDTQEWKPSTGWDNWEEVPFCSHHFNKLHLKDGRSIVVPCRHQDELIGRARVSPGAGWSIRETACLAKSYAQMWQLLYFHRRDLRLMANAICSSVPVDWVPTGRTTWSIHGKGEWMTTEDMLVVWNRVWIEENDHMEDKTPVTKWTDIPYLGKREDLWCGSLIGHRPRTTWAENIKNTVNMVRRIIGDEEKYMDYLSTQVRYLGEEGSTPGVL
Chain of ZIKV NS2B-NS3 protease (A0A024B7W1 1425-1464): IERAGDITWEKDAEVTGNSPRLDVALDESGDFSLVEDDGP
Chain of ZIKV NS2B-NS3 protease (A0A024B7W1 1503-1680): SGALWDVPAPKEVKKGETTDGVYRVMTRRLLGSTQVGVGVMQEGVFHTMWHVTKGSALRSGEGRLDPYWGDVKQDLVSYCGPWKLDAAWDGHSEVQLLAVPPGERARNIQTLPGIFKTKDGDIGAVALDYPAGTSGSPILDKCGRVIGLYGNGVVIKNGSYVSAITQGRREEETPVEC

Structure (SMILES)	CC50 (Vero cells) [µM]	IC50 (ZIKV NS2B-NS3 protease; [3]) [µM]	inhibition of protease activity (ZIKV NS2B-NS3 protease) [%]	concentration at which replication was blocked completely [1] [µM]	EC50 [1] [µM]	inhibition of the RdRp (in words) (ZIKV NS5 RdRp)	mode of DENV2 NS2B-NS3 protease inhibition (DENV2 NS2B-NS3 protease)	further results
COc1ccc(C(=O)/C=C/c2ccc(O)cc2)c(O)c1CC=C(C)C [4-HD, 4-hydroxyderricin]	103 ± 14	47 ± 10	> 80	45	6.6	XA, but not 4HD or XA-E, inhibited		
CC(C)=CC[C@@H]1C(C)=CC[C@@H](c2ccccc2)[C@@H]1C(=O)c1c(O)cc(O)cc1O [4-hydroxypanduratin A]							competitive inhibitory activity	
CC(C)=CCC/C(C)=C/Cc1c(O)ccc(C(=O)/C=C/c2ccc(O)cc2)c1O [XA, Xanthoangelol]								cytotoxic effects (in words) (Vero cells): did not display cytotoxic; IC50 (ZIKV NS2B-NS3 protease): 50 ± 5 µM; inhibition at 200 µM (ZIKV NS2B-NS3 protease; read-out: inhibition of protease activity): > 80%; anti-ZIKV activity (in words) ([1]; concentrations exceeding 50 μM): relatively weak anti-ZIKV activity; also recorded: only weak inhibition of ZIKV growth; IC50 (ZIKV NS5 RdRp): 6.9 ± 0.9 µM; inhibition of polymerase activity (ZIKV NS5 RdRp; 20 μM endpoint assay): 85%
C=C(C)C(Cc1c(OC)ccc(C(=O)/C=C/c2ccc(O)cc2)c1O)OO (centres unmarked) [XA-E, Xanthoangelol E]	111 ± 10	18 ± 5	> 80	75	22	XA, but not 4HD or XA-E, inhibited		mode of SARS-CoV PL^pro inhibition [2]: non-competitive mode; IC50 ([2]; read-out: SARS-CoV PL^pro IC50): 1.2 µM; mode of protease inhibition (ZIKV NS2B-NS3 protease; Michaelis-Menten and Lineweaver-Burk, consistent Km, decreasing Vmax): noncompetitive mode of inhibition
COc1cc(O)c(C(=O)[C@@H]2[C@H](CC=C(C)C)C(C)=CC[C@H]2c2ccccc2)c(O)c1 [panduratin A]							competitive inhibitory activity	
